One test deals with T-cell line. As to the kind of experiment: Induction on human TEX cells differentiation assessed as reduction in CD34 surface expression at 6 to 25 uM relative to control. Type of test: functional, cell-based. The following applies: dose 6-25 µM.
The species entered for test [1] is Homo sapiens. As to the kind of experiment: Inhibition of RING1B-PCGF1 (unknown origin) activity at 0.4 to 25 uM relative to control. The following applies: dose 0.4-25 µM.
The species entered for test [2] is Homo sapiens. As to the kind of experiment: Inhibition of BRCA1-BARD1 (unknown origin) activity at 12.2 to 50 uM relative to control. To be noted: dose 12.2-50 µM.
Test [3] is filed under the species Homo sapiens. Put plainly: Inhibition of TRIM37 (unknown origin) activity at 12.2 to 50 uM relative to control. To be noted: dose 12.2-50 µM.
The species entered for test [4] is Homo sapiens. As to the kind of experiment: Inhibition of RING1B-BMI1 (unknown origin) interaction with nucleosome at 0.8 to 12.5 uM measured by EMSA assay relative to control. The following applies: dose 0.8-12.5 µM.
The test system of test [5] is K562. Put plainly: Inhibition of PRC1 in human K562 cells. The class given is cell-based.
For test [6], the system named is K562. Put plainly: Inhibition of RING1B-BMI1 H2Aub activity in human K562 cells at 6.2 to 25 uM relative to control. Type of test: cell-based. The following applies: dose 6.2-25 µM.
A further test has as its system T cell. Put plainly: Inhibition of RING1B-BMI1 H2Aub activity in human TEX cells at 6 to 25 uM relative to control. Type of test: cell-based. To be noted: dose 6-25 µM.
Test [7] relates to M9-ENL1. Put plainly: Inhibition of colony formation in human M9-ENL1. Type of test: functional, cell-based.
Test [8] concerns M9-ENL1. As to the kind of experiment: Antitumour activity against human M9-ENL1 cells transplanted in mouse assessed as decrease in leukemia development. Type of test: functional, cell-based.
Test [9] deals with M9-ENL1. As to the kind of experiment: Antitumour activity against human M9-ENL1 cells transplanted in mouse assessed as decrease in engraftment. Type of test: functional, cell-based.

This note sets out measurements from ChEMBL document CHEMBL5052823, “Prc1 inhibitors and methods of treatment therewith” (2020).

The source made the active and inactive calls. The rule behind the calls is not given here.

As to `CCc1c(-c2cccc3c2ccn3CCO)[nH]c(C(=O)O)c1-c1ccc(OC)cc1Cl`, the outcome in the test with T-cell line was inactive.

For `CC(C)c1c(-c2cccc3[nH]ccc23)[nH]c(C(=O)O)c1-c1c(Cl)ccc2[nH]ccc12`, the inhibition entry in the test filed under Homo sapiens [1], in the test listed under Homo sapiens [4], with K562 [5], in the test on K562 [6], in the test with T cell and in the test on M9-ENL1 [7] was “Active” each time. Besides, the inhibition entry in the test listed under Homo sapiens [2] and in the test listed under Homo sapiens [3] was “inactive” in each case. In addition, the outcome in the test with T-cell line, in the test with M9-ENL1 [8] and in the test on M9-ENL1 [9] was Active.
